Assay results taken from PubChem BioAssay (NCI).
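Results reflect a 48-hour exposure of cells in 96-well plates to compound at five concentrations. The concentration for 50% growth inhibition is given as GI50. Definition used: TGI = concentration required for complete inhibition of growth.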

How the values were obtained:
Test in all cases: NCI tumour cell line growth inhibition, 48 h
786-0 renal = test system: 786-0 renal
NCI-H226 lung = test system: NCI-H226 lung
OVCAR-3 ovarian = test system: OVCAR-3 ovarian
NCI-H23 lung = test system: NCI-H23 lung
HOP-62 NSCLC = test system: HOP-62 NSCLC
UO-31 renal = test system: UO-31 renal
HOP-92 NSCLC = test system: HOP-92 NSCLC
IGROV1 ovarian = test system: IGROV1 ovarian
NCI-H522 lung = test system: NCI-H522 lung
LOX IMVI melanoma = test system: LOX IMVI melanoma
U251 CNS = test system: U251 CNS
NCI-H460 lung = test system: NCI-H460 lung
SF-295 CNS = test system: SF-295 CNS
RPMI-8226 leukemia = test system: RPMI-8226 leukemia
DU-145 prostate = test system: DU-145 prostate
COLO 205 colon = test system: COLO 205 colon
SK-MEL-2 melanoma = test system: SK-MEL-2 melanoma
CAKI-1 renal = test system: CAKI-1 renal
MCF7 breast = test system: MCF7 breast
MOLT-4 leukemia = test system: MOLT-4 leukemia
HCT-116 colon = test system: HCT-116 colon
OVCAR-5 ovarian = test system: OVCAR-5 ovarian
OVCAR-8 ovarian = test system: OVCAR-8 ovarian
HS 578T breast = test system: HS 578T breast
SNB-19 CNS = test system: SNB-19 CNS
SN12C renal = test system: SN12C renal
KM12 colon = test system: KM12 colon
CCRF-CEM leukemia = test system: CCRF-CEM leukemia
HCT-15 colon = test system: HCT-15 colon
UACC-62 melanoma = test system: UACC-62 melanoma
SK-MEL-28 melanoma = test system: SK-MEL-28 melanoma
A498 renal = test system: A498 renal
MALME-3M melanoma = test system: MALME-3M melanoma
SK-MEL-5 melanoma = test system: SK-MEL-5 melanoma
TK-10 renal = test system: TK-10 renal
MDA-MB-435 = test system: MDA-MB-435
OVCAR-4 ovarian = test system: OVCAR-4 ovarian
HCC-2998 colon = test system: HCC-2998 colon
SK-OV-3 ovarian = test system: SK-OV-3 ovarian
A549 NSCLC = test system: A549 NSCLC
M14 melanoma = test system: M14 melanoma
K-562 leukemia = test system: K-562 leukemia
SR leukemia = test system: SR leukemia
SF-268 CNS = test system: SF-268 CNS
T-47D breast = test system: T-47D breast
RXF 393 renal = test system: RXF 393 renal
ACHN renal = test system: ACHN renal
PC-3 prostate = test system: PC-3 prostate
NCI/ADR-RES ovarian = test system: NCI/ADR-RES ovarian
EKVX NSCLC = test system: EKVX NSCLC
HT29 colon = test system: HT29 colon
UACC-257 melanoma = test system: UACC-257 melanoma
SF-539 CNS = test system: SF-539 CNS
HL-60(TB) leukemia = test system: HL-60(TB) leukemia
MDA-MB-231 breast = test system: MDA-MB-231 breast
SW-620 colon = test system: SW-620 colon

CC(C)CNc1nc(-c2ccccc2Cl)nc2ccccc12
GI50 (786-0 renal): 16.8 µM
TGI (786-0 renal): 30.4 µM
GI50 (NCI-H226 lung): 17.7 µM
TGI (NCI-H226 lung): 35 µM
GI50 (OVCAR-3 ovarian): 17 µM
TGI (OVCAR-3 ovarian): 31.2 µM
GI50 (NCI-H23 lung): 16.2 µM
TGI (NCI-H23 lung): 31 µM
GI50 (HOP-62 NSCLC): 15.8 µM
TGI (HOP-62 NSCLC): 29.2 µM
GI50 (UO-31 renal): 17.1 µM
TGI (UO-31 renal): 49.2 µM
GI50 (HOP-92 NSCLC): 15.6 µM
TGI (HOP-92 NSCLC): 35.2 µM
GI50 (IGROV1 ovarian): 19.7 µM
TGI (IGROV1 ovarian): > 100 µM
GI50 (NCI-H522 lung): 25.5 µM
TGI (NCI-H522 lung): > 100 µM
GI50 (LOX IMVI melanoma): 14.5 µM
TGI (LOX IMVI melanoma): 27.6 µM
GI50 (U251 CNS): 16.9 µM
TGI (U251 CNS): 30.5 µM
GI50 (NCI-H460 lung): 18.3 µM
TGI (NCI-H460 lung): 36.1 µM
GI50 (SF-295 CNS): 14.9 µM
TGI (SF-295 CNS): 28.4 µM
GI50 (RPMI-8226 leukemia): 12.6 µM
TGI (RPMI-8226 leukemia): 32.7 µM
GI50 (DU-145 prostate): 16.1 µM
TGI (DU-145 prostate): 30.5 µM
GI50 (COLO 205 colon): 20.3 µM
TGI (COLO 205 colon): 50 µM
GI50 (SK-MEL-2 melanoma): 23.5 µM
TGI (SK-MEL-2 melanoma): 63.4 µM
GI50 (CAKI-1 renal): 15 µM
TGI (CAKI-1 renal): 32.7 µM
GI50 (MCF7 breast): 22.6 µM
TGI (MCF7 breast): 47.7 µM
GI50 (MOLT-4 leukemia): 17.9 µM
TGI (MOLT-4 leukemia): 54.9 µM
GI50 (HCT-116 colon): 16.6 µM
TGI (HCT-116 colon): 30.2 µM
GI50 (OVCAR-5 ovarian): 18.6 µM
TGI (OVCAR-5 ovarian): 35.2 µM
GI50 (OVCAR-8 ovarian): 17.2 µM
TGI (OVCAR-8 ovarian): 38.9 µM
GI50 (HS 578T breast): 18 µM
TGI (HS 578T breast): 37.3 µM
GI50 (SNB-19 CNS): 24.8 µM
TGI (SNB-19 CNS): 58.5 µM
GI50 (SN12C renal): 16.5 µM
TGI (SN12C renal): 30.6 µM
GI50 (KM12 colon): 23.4 µM
TGI (KM12 colon): 64.4 µM
GI50 (CCRF-CEM leukemia): 18.8 µM
TGI (CCRF-CEM leukemia): 43.3 µM
GI50 (HCT-15 colon): 17.1 µM
TGI (HCT-15 colon): 32.1 µM
GI50 (UACC-62 melanoma): 14.3 µM
TGI (UACC-62 melanoma): 27.4 µM
GI50 (SK-MEL-28 melanoma): 20.8 µM
TGI (SK-MEL-28 melanoma): 40.7 µM
GI50 (A498 renal): 18.5 µM
TGI (A498 renal): 32.6 µM
GI50 (MALME-3M melanoma): 12.4 µM
TGI (MALME-3M melanoma): 25.9 µM
GI50 (SK-MEL-5 melanoma): 16.2 µM
TGI (SK-MEL-5 melanoma): 29.8 µM
GI50 (TK-10 renal): 15.8 µM
TGI (TK-10 renal): 29.6 µM
GI50 (MDA-MB-435): 16.5 µM
TGI (MDA-MB-435): 30.8 µM
GI50 (OVCAR-4 ovarian): 17.1 µM
TGI (OVCAR-4 ovarian): 50.5 µM
GI50 (HCC-2998 colon): 19.8 µM
TGI (HCC-2998 colon): 35.9 µM
GI50 (SK-OV-3 ovarian): 21.3 µM
TGI (SK-OV-3 ovarian): 50.1 µM
GI50 (A549 NSCLC): 14.1 µM
TGI (A549 NSCLC): 33.5 µM
GI50 (M14 melanoma): 19.5 µM
TGI (M14 melanoma): 35.1 µM
GI50 (K-562 leukemia): 16.8 µM
TGI (K-562 leukemia): 43.5 µM
GI50 (SR leukemia): 19.7 µM
TGI (SR leukemia): 44.9 µM
GI50 (SF-268 CNS): 22.1 µM
TGI (SF-268 CNS): 40.4 µM
GI50 (T-47D breast): 35.2 µM
TGI (T-47D breast): > 100 µM
GI50 (RXF 393 renal): 15.1 µM
TGI (RXF 393 renal): 31.2 µM
GI50 (ACHN renal): 15.1 µM
TGI (ACHN renal): 33.8 µM
GI50 (PC-3 prostate): 18.5 µM
TGI (PC-3 prostate): 46.4 µM
GI50 (NCI/ADR-RES ovarian): 17.8 µM
TGI (NCI/ADR-RES ovarian): 42.6 µM

O=C1NC(=S)S/C1=C/c1ccc2c(c1)OCO2
GI50 (786-0 renal): > 100 µM
TGI (786-0 renal): > 100 µM
GI50 (NCI-H226 lung): > 100 µM
TGI (NCI-H226 lung): > 100 µM
GI50 (OVCAR-3 ovarian): 65.1 µM
TGI (OVCAR-3 ovarian): > 100 µM
GI50 (NCI-H23 lung): > 100 µM
TGI (NCI-H23 lung): > 100 µM
GI50 (HOP-62 NSCLC): > 100 µM
TGI (HOP-62 NSCLC): > 100 µM
GI50 (UO-31 renal): 5.8 µM
TGI (UO-31 renal): > 100 µM
GI50 (EKVX NSCLC): 88.4 µM
TGI (EKVX NSCLC): > 100 µM
GI50 (HOP-92 NSCLC): 17.6 µM
TGI (HOP-92 NSCLC): 87.7 µM
GI50 (IGROV1 ovarian): 27.3 µM
TGI (IGROV1 ovarian): > 100 µM
GI50 (NCI-H522 lung): > 100 µM
TGI (NCI-H522 lung): > 100 µM
GI50 (LOX IMVI melanoma): > 100 µM
TGI (LOX IMVI melanoma): > 100 µM
GI50 (U251 CNS): > 100 µM
TGI (U251 CNS): > 100 µM
GI50 (NCI-H460 lung): > 100 µM
TGI (NCI-H460 lung): > 100 µM
GI50 (SF-295 CNS): 88.3 µM
TGI (SF-295 CNS): > 100 µM
GI50 (RPMI-8226 leukemia): > 100 µM
TGI (RPMI-8226 leukemia): > 100 µM
GI50 (DU-145 prostate): > 100 µM
TGI (DU-145 prostate): > 100 µM
GI50 (COLO 205 colon): > 100 µM
TGI (COLO 205 colon): > 100 µM
GI50 (CAKI-1 renal): > 100 µM
TGI (CAKI-1 renal): > 100 µM
GI50 (MCF7 breast): > 100 µM
TGI (MCF7 breast): > 100 µM
GI50 (MOLT-4 leukemia): > 100 µM
TGI (MOLT-4 leukemia): > 100 µM
GI50 (HCT-116 colon): > 100 µM
TGI (HCT-116 colon): > 100 µM
GI50 (OVCAR-5 ovarian): > 100 µM
TGI (OVCAR-5 ovarian): > 100 µM
GI50 (HT29 colon): > 100 µM
TGI (HT29 colon): > 100 µM
GI50 (OVCAR-8 ovarian): > 100 µM
TGI (OVCAR-8 ovarian): > 100 µM
GI50 (HS 578T breast): 36.8 µM
TGI (HS 578T breast): > 100 µM
GI50 (SNB-19 CNS): > 100 µM
TGI (SNB-19 CNS): > 100 µM
GI50 (SN12C renal): > 100 µM
TGI (SN12C renal): > 100 µM
GI50 (KM12 colon): > 100 µM
TGI (KM12 colon): > 100 µM
GI50 (CCRF-CEM leukemia): > 100 µM
TGI (CCRF-CEM leukemia): > 100 µM
GI50 (UACC-257 melanoma): > 100 µM
TGI (UACC-257 melanoma): > 100 µM
GI50 (HCT-15 colon): > 100 µM
TGI (HCT-15 colon): > 100 µM
GI50 (UACC-62 melanoma): > 100 µM
TGI (UACC-62 melanoma): > 100 µM
GI50 (SF-539 CNS): > 100 µM
TGI (SF-539 CNS): > 100 µM
GI50 (SK-MEL-28 melanoma): > 100 µM
TGI (SK-MEL-28 melanoma): > 100 µM
GI50 (A498 renal): 28.7 µM
TGI (A498 renal): > 100 µM
GI50 (MALME-3M melanoma): 23 µM
TGI (MALME-3M melanoma): > 100 µM
GI50 (SK-MEL-5 melanoma): > 100 µM
TGI (SK-MEL-5 melanoma): > 100 µM
GI50 (TK-10 renal): > 100 µM
TGI (TK-10 renal): > 100 µM
GI50 (MDA-MB-435): > 100 µM
TGI (MDA-MB-435): > 100 µM
GI50 (HL-60(TB) leukemia): 77.3 µM
TGI (HL-60(TB) leukemia): > 100 µM
GI50 (HCC-2998 colon): > 100 µM
TGI (HCC-2998 colon): > 100 µM
GI50 (SK-OV-3 ovarian): > 100 µM
TGI (SK-OV-3 ovarian): > 100 µM
GI50 (A549 NSCLC): > 100 µM
TGI (A549 NSCLC): > 100 µM
GI50 (MDA-MB-231 breast): > 100 µM
TGI (MDA-MB-231 breast): > 100 µM
GI50 (M14 melanoma): > 100 µM
TGI (M14 melanoma): > 100 µM
GI50 (K-562 leukemia): > 100 µM
TGI (K-562 leukemia): > 100 µM
GI50 (SR leukemia): > 100 µM
TGI (SR leukemia): > 100 µM
GI50 (SW-620 colon): > 100 µM
TGI (SW-620 colon): > 100 µM
GI50 (SF-268 CNS): > 100 µM
TGI (SF-268 CNS): > 100 µM
GI50 (T-47D breast): > 100 µM
TGI (T-47D breast): > 100 µM
GI50 (RXF 393 renal): > 100 µM
TGI (RXF 393 renal): > 100 µM
GI50 (ACHN renal): > 100 µM
TGI (ACHN renal): > 100 µM
GI50 (PC-3 prostate): 82.1 µM
TGI (PC-3 prostate): > 100 µM
GI50 (NCI/ADR-RES ovarian): > 100 µM
TGI (NCI/ADR-RES ovarian): > 100 µM
